Measurements as given in PMC9883482, “TPX2 enhances the transcription factor activation of PXR and enhances the resistance of hepatocellular carcinoma cells to antitumor drugs” (Cell Death & Disease, 2023).
Like-named read-outs stand apart in the source and are kept apart here.

How the values were obtained:
LS180 cells = assay: MTT cell survival examination; assay type: cell-based; settings: Homo sapiens
Protocol: The antitumor activity of antitumor drugs injuring HCC cells was examined by using MTT assay. After culturing the HCC cells, transfection experiments were performed, and the cells were then seeded in 96-well cell culture plates (about 8000 cells per well). […] After the cells were treated with the drug for about 48 h, a dose of […] tetrazolium (MTT) reagent was added, and cells with the MTT reagent were incubated for 5 to 6 h. After incubation with the MTT was complete, all liquid in the 96-well cell culture plate was discarded, and about 100 μl of DMSO was added to each well to dissolve the cell samples. During the process of lysing the cell samples, the cell culture plate was shaken for 15 minutes to completely lyse the cells. After the lysis step was complete, the cell culture plate was centrifuged at 12,000 rpm at 4 °C, and the supernatant was collected for evaluation.
(§1) All statistical analyses in the presence work were performed using the GraphPad 8.0 (GraphPad Software Corporation, Armonk, NY, USA). […] For the survival analysis data, the survival curves were analyzed by the log-rank (Mantel–Cox) test to detect the P-value of the survival curve, the median survival time, and the 95% confidence interval (CI). For the co-relationship analysis, the data were analyzed by linear regression to determine the overall trend of a group of data points. […] If the slope was positive, the horizontal coordinate was positively related to the vertical coordinate, and if the slope was negative, the horizontal coordinate was negatively related to the vertical coordinate. For the multi-grouped data, the ordinary one-way analysis of variance (ANOVA) and multiple comparison methods were used. An ANOVA was used to examine whether any difference between groups could be detected. The multiple comparisons (t-test) was used to detect differences between pairs of data.

[1] = Sorafenib metabolism/clearance in cultured cells, LC-MS/MS; assay type: in vitro ADME; settings: human
Protocol: (§2) After incubation with sorafenib was complete, the medium containing sorafenib was discarded and replaced with normal DMEM + FBS for continuous cultures. Cell samples were collected at each time point starting at 0 (when the cell samples were collected immediately after the incubation step/baseline) followed by 4, 8, 12, 24, and 48 h.
(§3) For sorafenib-treated samples in cellular experiments, sorafenib processing and extraction of the samples were performed. HCC cell samples were re-suspended in PBS after which the organic solvent acetonitrile at a ratio of 1:1 was added. The samples were then crushed and extracted for about 30 min with vortex shaking. After that step, the samples were centrifuged at 12,000 rpm at 4 °C for about 15 to 20 min. At this time, the samples were separated into cell debris, organic, and water phases. The collected organic phase contained the sample of sorafenib in acetonitrile.
(§4) S transition pair was detected using LC–MS/MS: (1) the parent ion was 465 Da and (2) the product ion was 252 Da.
as §1

[2] = Sorafenib metabolism/clearance in subcutaneous tumor tissues, LC-MS/MS; assay type: in vivo, nude mice; settings: nude, mouse, read-out: t1/2 values (converted)
Protocol: (§5) For HCC subcutaneous tumor tissue, HCC cells were first cultured for transfection after which the cells were inoculated subcutaneously into nude mice to form tumor tissue. […] The HCC tumor tissues were collected at each time point described previously with the addition of 72 and 96 h.
(§6) During the extraction of sorafenib samples from HCC tissue samples, the tissue samples were shredded to form tissue micro-blocks and then ground with liquid nitrogen. The samples ground with liquid nitrogen were mixed with PBS and then mixed with the organic solvent acetonitrile at a ratio of 1:1. The samples were then crushed and extracted for about 30 min using vortex shaking. After that, the samples were centrifuged at 12,000 rpm and at 4 °C for about 15 to 20 min. At this time, the sample was separated into cell debris and organic and water phases.
as §4, §1

[3] = test system: subcutaneous tumor tissue formed by MHCC97-L cells; assay: as above; assay type: in vivo, nude mice; settings: MHCC97-L subcutaneous tumour tissues, control group (rifampicin experiment)
Protocol: as §5, §6, §4, §1

HepG2 cells = assay: Subcutaneous tumor model; assay type: in vivo; settings: nude mice; 2.0, 1.0 or 0.5 mg/kg oral
Description: In the process of dissolving these pure drug powders, stirring, vortexing, and ultrasonic vibration were used to assist dissolution.
The HCC cells were transfected with plasmids and then injected into the subcutaneous position of nude mice (the HepG2 cells were transfected with TPX2 for TPX2 overexpression and the siRNA of TPX2 for TPX2 knockdown). After the cells in the bottom of the dish were digested with trypsin, the cells were gently mixed with sterilized PBS to prepare a cell suspension. The resulting cell suspension was directly injected subcutaneously into nude mice using a pre-sterilized disposable medical syringe with a capacity of 1 ml. After that step, animal status was observed every day, and the tumor tissue was collected after 4 to 6 weeks of growth to detect the tumor volume (using a Vernier caliper to measure the long and short axes of the tumor tissue after which the tumor volume was calculated according to the formula: short axis × short axis × long axis/2) and weight (accurately weighed with a 1/10000th precision balance). Finally, the tumor tissue was ground with liquid nitrogen, and qPCR was then used to measure the mRNA expression level of the corresponding genes. The intrahepatic tumor model and the in vivo imaging of small-animals-related experiments were performed according to our previous publications. […]

[4] = test system: HCC subcutaneous tumor tissues; assay: Sorafenib retention in HCC subcutaneous tumor tissues, LC-MS/MS; assay type: in vivo, nude mice; settings: 72-h time point after intratumoral injection
Protocol: as §5, §6, §4

[5] = test system: HCC cells (MHCC97-H, MHCC97-L, or HepG2); assay: Sorafenib retention in cultured HCC cells, LC-MS/MS; assay type: in vitro ADME, human; settings: 48-h time point after 1 μmol/L incubation
Protocol: as §2, §3, §4

[6] = Sorafenib metabolism/clearance in LS180 cells; assay type: in vitro ADME; settings: human, read-out: t1/2 values (converted)

SMILES: CNC(=O)c1cc(Oc2ccc(NC(=O)Nc3ccc(Cl)c(C(F)(F)F)c3)cc2)ccn1 [sorafenib]
- IC50 (LS180 cells; LS180, LS180, TPX2 knockdown): 250 nM
- IC50 (LS180 cells; LS180, LS180, TPX2 overexpression): 4300 nM
- IC50 (LS180 cells; LS180, LS180, control group): 910 nM
- half-life at 1 μmol/L ([1]; HepG2 cells, Control, median (95% CI), read-out: t1/2 values (converted)): 18.9 h
- half-life at 1 μmol/L ([1]; HepG2 cells, TPX2 overexpression, median (95% CI), read-out: t1/2 values (converted)): 13.7 h
- half-life at 1 μmol/L ([1]; HepG2 cells, siTPX2, read-out: t1/2 values (converted)): > 24 h
- half-life at 1 μmol/L ([1]; MHCC97-H cells, Control, median (95% CI), read-out: t1/2 values (converted)): 15.5 h
- half-life at 1 μmol/L ([1]; MHCC97-H cells, siTPX2, median (95% CI), read-out: t1/2 values (converted)): 36.6 h
- half-life at 1 μmol/L ([1]; MHCC97-L cells, Control, median (95% CI), read-out: t1/2 values (converted)): 18.7 h
- half-life at 1 μmol/L ([1]; MHCC97-L cells, TPX2 overexpression, median (95% CI), read-out: t1/2 values (converted)): 11.9 h
- half-life ([2]; subcutaneous tumor tissue formed by HepG2 cells, Control, median (95% CI)): 29.4 h
- half-life ([2]; subcutaneous tumor tissue formed by HepG2 cells, TPX2 overexpression, median (95% CI)): 18.5 h
- half-life ([2]; subcutaneous tumor tissue formed by HepG2 cells, siTPX2, median (95% CI)): 42.2 h
- half-life ([2]; subcutaneous tumor tissue formed by MHCC97-H cells, Control, median (95% CI)): 19.7 h
- half-life ([2]; subcutaneous tumor tissue formed by MHCC97-H cells, siTPX2, median (95% CI)): 27.5 h
- half-life ([2]; subcutaneous tumor tissue formed by MHCC97-L cells, MHCC97-L tumor tissues, Control, median (95% CI)): 28.3 h
- half-life ([2]; subcutaneous tumor tissue formed by MHCC97-L cells, MHCC97-L tumor tissues, TPX2 overexpression, median (95% CI)): 13.5 h
- half-life ([2]; subcutaneous tumor tissue formed by MHCC97-L cells, other: injected directly into the tumor tissue, MHCC97-L subcutaneous tumour tissues, TPX2 overexpression + rifampicin 5 mg/kg oral): 11.4 h
- half-life ([2]; subcutaneous tumor tissue formed by MHCC97-L cells, other: injected directly into the tumor tissue, MHCC97-L subcutaneous tumour tissues, TPX2 overexpression group (rifampicin experiment)): 14 h
- t1/2 values [3]: 29.70 [21.38–36.75]
- subcutaneous growth of HepG2 cells (tumor volumes/weights) (HepG2 cells): inhibited the subcutaneous growth of HepG2 cells in a dose-dependent manner
- metabolism and elimination in HCC tissues [4]: almost completely metabolized and eliminated
- metabolism and elimination in cultured HCC cells [5]: almost completely metabolized and eliminated
- half-life at 1 μmol/L ([6]; TPX2 knockdown): 32.7 h
- half-life at 1 μmol/L ([6]; TPX2 overexpression): 12 h
- half-life at 1 μmol/L ([6]; control of TPX2 knockdown experiment): 21.8 h
- half-life at 1 μmol/L ([6]; control of TPX2 overexpression experiment): 21.3 h
